Among the test systems are UACC-257; SF-295; OVCAR-4; NCI/ADR-RES; SK-MEL-2; MDA-MB-435; NCI-H226; 786-0; HL-60; CCRF-CEM; COLO 205; CAKI-1; TK-10; DU-145; M14; SNB-75; SNB-19; HCT-15; MOLT-4; K562.
Common to all, as to assay: NCI anticancer screen, dose series, 48 h

The results in this text go back to ChEMBL document CHEMBL1201862, “PubChem BioAssay data set” (2004).

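Five compound concentrations were applied to cells in 96-well plates for 48 hours; endpoints were derived by simple linear interpolation of the resulting dose-response curve. GI50: concentration for 50% inhibition of growth.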 Active and inactive are the calls of the source. No stated cut-off is given here; in the data, active = GI50 up to about 1.1 µM and inactive = higher.

In the case of `CC1=CC(=O)/C(=C/n2c(=S)[nH]c3cc(C)ccc32)C(=O)O1`, the GI50 with UACC-257 was > 100 µM (inactive); in the test with SF-295 it was > 100 µM (inactive); in the test on OVCAR-4, 73.8 µM (inactive); with NCI/ADR-RES it was > 100 µM (inactive); with SK-MEL-2, > 100 µM (inactive); with MDA-MB-435, > 100 µM (inactive). The GI50 is > 100 µM (inactive) in the test with NCI-H226; > 100 µM (inactive) in the test with 786-0; 55.6 µM (inactive) in the test on HL-60; 98.9 µM (inactive) in the test with CCRF-CEM; > 100 µM (inactive) in the test on COLO 205; > 100 µM (inactive) with CAKI-1. Also, the GI50 with TK-10 was > 100 µM (inactive); in the test on DU-145, > 100 µM (inactive); with M14 it was > 100 µM (inactive); in the test on SNB-75 it was > 100 µM (inactive); in the test with SNB-19 it was > 100 µM (inactive); in the test on HCT-15, over 100 µM. In addition, the GI50 in the test on MOLT-4 was > 100 µM (inactive).
On to `CNC(=O)CC1NC(=O)c2csc(n2)-c2ccc(-c3nc(C4=NC(C(=O)N5CCCC5C(N)=O)CO4)cs3)nc2-c2csc(n2)-c2csc(n2)C(C(C)C)NC(=O)CNC(=O)c2csc(n2)C(C(C)C)NC(=O)c2nc1sc2C` (stereo not drawn), for which the GI50 is 0.02 µM (active) with UACC-257; 0.021 µM (active) in the test with SF-295; 4.33 µM (inactive) with OVCAR-4; 6.05 µM (inactive) in the test with NCI/ADR-RES; 0.0155 µM (active) in the test with SK-MEL-2; > 25 µM (inactive) in the test on MDA-MB-435. The GI50 in the test on K562 is 0.00239 µM (active); in the test on NCI-H226 it was 0.00391 µM (active); with 786-0, 0.0214 µM (active); with HL-60, > 25 µM (inactive); in the test on CCRF-CEM it was 0.00527 µM (active); in the test with COLO 205, 0.00126 µM (active). Further, the GI50 in the test with CAKI-1 is 0.436 µM (active); in the test with TK-10 it was 0.0386 µM (active); with DU-145, 0.0038 µM (active); in the test on M14, 0.0123 µM (active); with SNB-75, 0.00203 µM (active); in the test on SNB-19, 0.043 µM (active). The GI50 in the test with HCT-15 was 0.479 µM; with MOLT-4, 0.00728 µM (active).
`Cc1cn([C@@H]2C[C@@H]2CO)c(=O)[nH]c1=O`: the GI50 in the test with UACC-257, with OVCAR-4, in the test with NCI/ADR-RES, in the test on SK-MEL-2, with MDA-MB-435 and in the test with K562 was > 100 µM (inactive) in each case. In addition, the GI50 in the test with NCI-H226, with 786-0, in the test on HL-60, with CCRF-CEM, with COLO 205 and with CAKI-1 was > 100 µM (inactive) in each case. Also, the GI50 with TK-10 is > 100 µM (inactive); with DU-145 it was > 100 µM (inactive); in the test on M14 it was > 100 µM (inactive); in the test on SNB-75 it was > 100 µM (inactive); with SNB-19, > 100 µM (inactive); with HCT-15 it was over 100 µM. Also, in the test with MOLT-4, the GI50 was > 100 µM (inactive).
Take `CCOC(=O)C(=O)/C(=C/NC(=S)Nc1ccc(Cl)c(Cl)c1)C(=O)OCC`: the GI50 in the test on UACC-257 was 60.3 µM (inactive); in the test with SF-295 it was > 100 µM (inactive); with OVCAR-4, 88.7 µM (inactive); in the test with NCI/ADR-RES, 50.1 µM (inactive); with SK-MEL-2, 69.2 µM (inactive); in the test with MDA-MB-435, 72.1 µM (inactive). Further, the GI50 with NCI-H226 was 56 µM (inactive); in the test on 786-0, 89.7 µM (inactive); with HL-60, 15.9 µM (inactive); in the test with CCRF-CEM, 53.3 µM (inactive); in the test with COLO 205, 67.9 µM (inactive); in the test with CAKI-1, 64.7 µM (inactive). The GI50 was > 100 µM (inactive) in the test on TK-10; > 100 µM (inactive) in the test with DU-145; 75.3 µM (inactive) in the test on M14; 31.2 µM (inactive) in the test on SNB-75; > 100 µM (inactive) in the test with SNB-19; over 100 µM in the test on HCT-15. In addition, the GI50 with MOLT-4 was 29.4 µM (inactive).
As for `O=c1cnn(C2OC(C(O)CO)C(O)C2O)c(=O)[nH]1` (stereo not drawn), the GI50 with UACC-257, in the test on OVCAR-4, with NCI/ADR-RES, with SK-MEL-2, in the test on MDA-MB-435 and in the test with K562 was > 100 µM (inactive) each time. Moreover, the GI50 with NCI-H226, in the test with 786-0, with HL-60, in the test with CCRF-CEM, in the test with COLO 205 and in the test on CAKI-1 was > 100 µM (inactive) in each case. Also, the GI50 was > 100 µM (inactive) in the test with TK-10; > 100 µM (inactive) with DU-145; > 100 µM (inactive) in the test on M14; > 100 µM (inactive) in the test with SNB-75; > 100 µM (inactive) in the test with SNB-19; over 100 µM in the test with HCT-15. In addition, the GI50 in the test on MOLT-4 was > 100 µM (inactive).
Turning to `COC(=O)Nc1nc2cc(NC(=O)c3ccc(I)cc3)ccc2[nH]1`, the GI50 in the test on UACC-257, in the test on SF-295, in the test on OVCAR-4, in the test with NCI/ADR-RES, in the test on SK-MEL-2 and in the test on MDA-MB-435 was > 100 µM (inactive) each time. Moreover, the GI50 in the test on K562, in the test on NCI-H226, with 786-0, in the test on HL-60, in the test with CCRF-CEM and in the test with COLO 205 was > 100 µM (inactive) each time. In addition, the GI50 in the test on CAKI-1 was > 100 µM (inactive); in the test on TK-10, > 100 µM (inactive); with DU-145, > 100 µM (inactive); in the test on M14, > 100 µM (inactive); with SNB-75 it was 96.8 µM (inactive); in the test on SNB-19 it was > 100 µM (inactive). Besides, the figures for the GI50 with HCT-15 and in the test with MOLT-4 were over 100 µM and > 100 µM (inactive), respectively.
For `C[N+](C)(C)CC1CCCC1=O` (stereo not drawn), the GI50 was 5.53 µM (inactive) in the test with UACC-257; 19.1 µM (inactive) with SF-295; 0.867 µM (active) with OVCAR-4; 1.94 µM (inactive) in the test on NCI/ADR-RES; 5.61 µM (inactive) in the test with SK-MEL-2; 1.71 µM (inactive) with MDA-MB-435. Besides, the GI50 was 0.377 µM (active) with K562; 17.2 µM (inactive) with NCI-H226; 2.34 µM (inactive) in the test on 786-0; 0.406 µM (active) in the test with HL-60; 0.213 µM (active) in the test on CCRF-CEM; 1.2 µM (inactive) in the test with COLO 205. The GI50 in the test on CAKI-1 is 2.48 µM (inactive); in the test with TK-10, 2.62 µM (inactive); in the test with DU-145 it was 0.0296 µM (active); in the test on M14, 0.929 µM (active); in the test with SNB-75, 3.1 µM (inactive); in the test on SNB-19 it was 20.2 µM (inactive). Further, the GI50 in the test on HCT-15 is 2.18 µM; with MOLT-4, 0.249 µM (active).
Regarding `Cc1ccc2c(c1)[nH]c(=S)n2C=C1C(=O)CC(C)(C)CC1=O`, the GI50 in the test on UACC-257, with SF-295, with OVCAR-4, with NCI/ADR-RES, with SK-MEL-2 and in the test on MDA-MB-435 was > 100 µM (inactive) in each case. Further, the GI50 with NCI-H226, in the test with 786-0, with HL-60, with CCRF-CEM, in the test with COLO 205 and in the test on CAKI-1 was > 100 µM (inactive) in each case. Further, the GI50 with TK-10 was > 100 µM (inactive); in the test on DU-145, > 100 µM (inactive); in the test on M14 it was > 100 µM (inactive); in the test with SNB-75 it was > 100 µM (inactive); with SNB-19, > 100 µM (inactive); in the test on HCT-15 it was over 100 µM. For the same compound, in the test with MOLT-4, the GI50 is > 100 µM (inactive).
For the compound `O=C(CSCC(=O)N/N=C\c1ccc(F)cc1F)N/N=C\c1ccc(F)cc1F`, the GI50 with UACC-257, with SF-295, in the test on OVCAR-4, in the test on NCI/ADR-RES, with SK-MEL-2 and in the test on MDA-MB-435 was > 100 µM (inactive) throughout. For the same compound, the GI50 in the test with NCI-H226, in the test with 786-0, with HL-60, in the test with CCRF-CEM, in the test with COLO 205 and with CAKI-1 was > 100 µM (inactive) throughout. The GI50 with TK-10 is > 100 µM (inactive); with DU-145 it was > 100 µM (inactive); in the test on M14, > 100 µM (inactive); in the test on SNB-75 it was > 100 µM (inactive); in the test on SNB-19, > 100 µM (inactive); with HCT-15, over 100 µM. Also, the GI50 in the test with MOLT-4 is > 100 µM (inactive).
Take `COc1ccccc1C(=O)OCC1CCCN2CCCCC12` (stereo not drawn): the GI50 was 31 µM (inactive) with UACC-257; 26.3 µM (inactive) in the test on SF-295; 83 µM (inactive) in the test with OVCAR-4; 37.3 µM (inactive) with NCI/ADR-RES; 54.3 µM (inactive) with SK-MEL-2; 64.3 µM (inactive) with MDA-MB-435. For the same compound, the GI50 was 33.9 µM (inactive) in the test on K562; 54.8 µM (inactive) with NCI-H226; > 100 µM (inactive) with 786-0; 21.1 µM (inactive) in the test with HL-60; 18.6 µM (inactive) with CCRF-CEM; 21.1 µM (inactive) in the test with COLO 205. Also, the GI50 in the test on CAKI-1 is > 100 µM (inactive); with TK-10, > 100 µM (inactive); in the test on DU-145, > 100 µM (inactive); with SNB-75 it was 20.6 µM (inactive); in the test with SNB-19 it was 35.9 µM (inactive); in the test on HCT-15, 36.6 µM. The GI50 in the test with MOLT-4 is 38.5 µM (inactive).
